Columns and labels:
C. albicans = assay: Histatin killing assay after heparin preincubation; type: cell-based, Candida albicans; conditions: 500 units/ml heparin, then histatin 5 (15 μM)
Protocol: In order to evaluate the consequences of removal of Ssa1 and Ssa2 (Table 4), both targets of histatin, a histatin killing assay was performed as follows. C. albicans strains were grown to late log phase overnight in YPD. A single colony was suspended in 1 ml YPD, diluted 1:500 into 10 ml YPD, and incubated overnight at 30° C. and 225 rpm to OD600 1.0. Yeast cells were washed twice in PBS and 2×10^4 cells suspended in 250 μl RPMI+10 mM HEPES, pH 7.0, with or without 500 units/ml heparin (Sigma). The cells were incubated at 37° C. for one hour with shaking, washed twice with 10 mM phosphate buffer, pH 7.4, and suspended in 20 μl phosphate buffer. Histatin 5 (final concentration 15 μM; Peptides International) or 10 mM phosphate buffer was added to the preincubated cells (total volume 40 μl) and incubated further at 37° C. for 90 minutes with shaking. YPD (360 ul) was added to each tube, a 40 μl aliquot spread onto YPD plates, and colonies counted after two days. The effect of heparin treatment was determined by the formula % change=[(cfu+heparin)−(cfu−heparin)]/(cfu+heparin).

[1] = tested on: Candida albicans BWP17 wt; assay: Percent hyphae by flow cytometry with or without heparin; type: cell-based; conditions: 100 units/ml heparin; YPD 30° C. or RPMI-HEPES 37° C.
Protocol: Flow cytometry was performed by inoculating a single colony of BWP17 wt into 3 ml YPD medium and incubating overnight at 30° C. with shaking at 225 rpm. […] One ml aliquots of each mixture were removed, pelleted (7,000 rpm for 3 min), washed twice with PBS, and reconstituted in 1 ml PBS. Flow cytometry analysis was performed using the Imagestream^X flow cytometer (Amnis, Seattle Wash.) equipped with a 405 nm, 488 nm, 653 nm, laser and multi-mag function. The 40× magnification, 10 mm/sec flow rate, and 488 nm laser were used to collect SSC and Brightfield parameters. The flow cell allows particles up to 100 μm wide (height unlimited) to be collected in the instrument. INSPIRE (v.6.0) software was used to acquire events. Software analysis using IDEAS (v5.0) identified percent hyphae using aspect ratio, height and width features using the side scatter (Channel 6) and brightfield (Channel 1) parameters. Objects were selected within each file and tagged to use as identification of truth sets within the population.

[2] = tested on: C. albicans surface proteins; assay: nLC-MSMS semi-quantitation of C. albicans surface proteins in supernatants of heparin-treated versus untreated organisms; type: cell-based, Candida albicans
Protocol: In other systems, heparin has been reported to cleave surface proteins (56), change protein conformation (57), and bind trypsin-sensitive lysine and arginine residues in histone H1 (58). In order to understand whether incubation with heparin changed the conformation of C. albicans surface proteins, 1×10^7 C. albicans were incubated for one hour at […] on a rotator with pharmacologic heparin (20,000 units/ml) diluted in RPMI-HEPES to a working concentration of 250 units/ml. C. albicans 1×10^7 C. albicans in an equal volume of RPMI-HEPES served as control. Supernatants were removed. 300 μl of Hep+ and Hep− supernatants were incubated with 100 μl avidin agarose beads (Thermo Scientific) for 60 min at room temperature on a rotator in the presence of 50 units heparin (Hep+); an equal volume of RPMI-HEPES was substituted for heparin in the Hep− supernatants. Beads were pelleted, and 100 μl beads were incubated with 100 μl 3.0 M NaCl for 30 mins at room temperature on a rotator. Beads were pelleted and the supernatants were withdrawn; 100 μl TCA was added to 100 μl Hep+ or 100 μl Hep− supernatants and incubated on ice overnight at 4° C. The TCA precipitates were stored at −80° C. until analysis by mass spectroscopy.
Six biological replicates of TCA precipitated protein pellets from equal cellular equivalence of heparin-treated (Hep+) and untreated (Hep−) conditioned medium from cultures of C. albicans were each solubilized in 50 μL Laemmli gel buffer. To remove any residual TCA and to further concentrate the samples, each was subjected to buffer exchange and concentration using an Amicon ultra 3 kDa microfuge filtration cartridge at 14,000×g for 15 min with five subsequent additions of 50 μL of 1× Laemmli gel buffer between spins. The resulting retained proteins (6 Hep+ and 6 Hep−) were subsequently prepared for SDS-PAGE by combining into two pools of three samples for the Hep+ and Hep− conditioned medium. The replicate sample pools were loaded onto two 4-12% mini gels and separated using the MOPS buffer system followed by silver staining to visualize the proteins using the Sigma Proteosilver system. The proteins were prepared for identification and quantitation by mass spectrometry by gridding the gel lanes from the replicates of Hep+ and Hep− samples into 11 equal regions followed by in gel trypsin digestion and extraction of peptides as described (59)
The recovered peptides from the gridded gel sections were analyzed by liquid chromatography coupled nano-electrospray mass spectrometry (nLC-MSMS) on a TripleTOF 5600 mass spectrometer (AB Sciex, Toronto Canada) attached to an Eksigent (Dublin Calif.) nanoLC ultra nanoflow system. […]

[3] = heparin 250 units/ml, compared to untreated organisms

In the case of heparin, the “decrease in histatin-mediated killing” value (C. albicans; INT1 double disruptant) is reported as 1.5%, the “decrease in histatin-mediated killing” value (C. albicans; wild type C. albicans) is reported as 25% and the “percent hyphae by flow cytometry” value [1] is reported as “did not differ”. For the same substance, the “increase in VPTTDVSVVDLTVR from Tdh3 in supernatants” value [2, 3] was “five-fold increase”, the “increase in intensity of IDVVDQAK from Eno1 in supernatants” value [2, 3] was “seven-fold increase” and the “increase in intensity of SLLDAAVK from Pgk1 in supernatants” value [2, 3] was “ten-fold increase”. For the same substance, the “increased intensities of other peptides from Eno1, Pgk1 and Tdh3” value ([2]; versus corresponding peptides from untreated organisms, data not shown) was 10-16 fold.

Reference: patent US9409975B2, “Antibody binding microbial heparin binding motif to retard or prevent microbial biofilm formation on implanted medical devices” (priority 2012, dated 2016)
